The source of these data is patent US20250281462A1, “THERAPEUTICALLY EFFECTIVE ORAL ADMINISTRATION OF A 2 ARYLBENZIMIDAZOLE” (Tranquis Therapeutics, Inc., priority 2021, published 2025).

Data set [1] in a line: clinical. Particulars: male, human, in vivo, po; for half-life: T1/2.
For data set [2], the system named is TNF-α. Briefly: LPS-induced TNF-α production by primary human myeloid cells (PBMC, CBA). In kind it is cell-based. Particulars: 100 ng/mL LPS, 24 hours. As for the experimental part:
Peripheral blood mononuclear cells (PBMC) from 4 different healthy volunteers were used in this study. Fresh blood samples were collected at Stanford Blood Center and processed for PBMC isolation with Ficoll gradient. PBMC samples were stored in liquid nitrogen at […] for subsequent analysis of TNF-α production. For TNF-α stimulation, frozen PBMC samples were thawed and rested at 37° C. before cells were stimulated with 100 ng/ml of LPS for 24 hours. DMSO (1:1000 final dilution) or TQS-168 in DMSO (1:1000 final dilution) at various concentrations was added to cell cultures of LPS-stimulated PBMC to evaluate the effects of T-168 on TNF-α production by human primary myeloid cells. After 24 hours stimulation, supernatant samples from various conditions were collected and TNF-α concentrations in the supernatants analyzed with cytometric bead array (CBA) assay per protocols from BD Biosciences. TNF-α was quantified by median fluorescent intensity reading (MFI). Samples were analyzed directly after staining with LSRII flow cytometer.

For data set [3], the system named is Ppargc1α (PGC-1α). As to conditions: Zhang et al., Diabetes 62:1297-1307 (2013); cited from earlier work.

Several values for one entry are separate records, joined by “and”; a condition that tells them apart may be missing. Equal entries are not always repeated.

A word on the AUC(0-t): it is exposure summed from dosing to a finite time, without extrapolation to infinity. A low value points to low exposure. As a reminder, the AUC(0-inf) is the area under the concentration-time curve extrapolated to infinity. Low readings indicate low exposure, high ones high exposure. As usually defined, the Cmax is the highest concentration seen after dosing. What is called half-life is the time in which the quantity being followed falls by half. A low value points to fast loss. One may read the Tmax as the time from dosing to the highest level. With `CC(C)(C)c1ccc(-c2nc3cc(O)ccc3[nH]2)cc1` [TQS-621], the AUC(0-t) in data set [1] (60 mg, AUC(0-24)) amounted to 383 ng·h/mL; in data set [1] (60 mg, AUC(0-last)), 401 ng·h/mL; in data set [1] (90 mg, AUC(0-24)) it was 1170 ng·h/mL; in data set [1] (270 mg, AUC(0-24)), 4250 ng·h/mL; in data set [1] (270 mg, AUC(0-last)) it was 4760 ng·h/mL; in data set [1] (540 mg, AUC(0-24)), 10800 ng·h/mL. Further, the area under the curve AUC(0-t) in data set [1] (540 mg, AUC(0-last)) came out at 12000 ng·h/mL. For the same molecule, the total exposure AUC(0-inf) in data set [1] (60 mg) is 410 ng·h/mL; in data set [1] (90 mg) it was 1200 ng·h/mL; in data set [1] (270 mg) it was 4950 ng·h/mL; in data set [1] (540 mg) it was 12700 ng·h/mL. Moreover, the Cmax in data set [1] (60 mg) was 65.3 ng/mL and 250 nM; in data set [1] (90 mg), 214 ng/mL and 800 nM; in data set [1] (270 mg), 2330 nM; in data set [1] (540 mg), 1110 ng/mL and 4.17 µM. Also, the half-life was 4.89 h in data set [1] (60 mg), 9.1 h in data set [1] (180 mg), 10.4 h in data set [1] (270 mg) and 11.3 h in data set [1] (540 mg). The Tmax in data set [1] (60 mg) was determined as 2.5 h; in data set [1] (180 mg) it was 1.5 h; in data set [1] (270 mg) it was 2 h; in data set [1] (540 mg), 4 h.
On to `CC(C)(C)c1ccc(-c2nc3ccccc3[nH]2)cc1` [TQS-168, 2-(4-tert-butylphenyl)-1H-benzimidazole], for which the “suppression of TNFα production vs no treatment” value in data set [2] (5 μM) and in data set [2] (20 μM) was “statistically significant suppression” in each case. Besides, in data set [3], the “effect on Ppargc1α (PGC-1α) gene expression” value is given as “activator”.
